The NIST ThermoML archive (doi:10.1021/je0505265)
± gives the expanded uncertainty stated by the source.

Details: Crystal; DTA

Normal melting temperature: 137.7 ± 0.5 °C
Structure (SMILES): CC[C@H]1OC(=O)[C@H](C)[C@@H](O[C@H]2C[C@@](C)(OC)[C@@H](O)[C@H](C)O2)[C@H](C)[C@@H](O[C@@H]2O[C@H](C)C[C@H](N(C)C)[C@H]2O)[C@](C)(O)C[C@@H](C)C(=O)[C@H](C)[C@@H](O)[C@]1(C)O.O.O [erythromycin A dihydrate]
